# Target: T1, AR (Homo sapiens, UniProt P10275, T878A)
# T1 construct: into the androgen-dependent PCa cells (LNCaP); endogenous in cells; host or cells: LNCaP-ARR2PB-eGFP
# T1 sequence (P10275 1-920 T878A): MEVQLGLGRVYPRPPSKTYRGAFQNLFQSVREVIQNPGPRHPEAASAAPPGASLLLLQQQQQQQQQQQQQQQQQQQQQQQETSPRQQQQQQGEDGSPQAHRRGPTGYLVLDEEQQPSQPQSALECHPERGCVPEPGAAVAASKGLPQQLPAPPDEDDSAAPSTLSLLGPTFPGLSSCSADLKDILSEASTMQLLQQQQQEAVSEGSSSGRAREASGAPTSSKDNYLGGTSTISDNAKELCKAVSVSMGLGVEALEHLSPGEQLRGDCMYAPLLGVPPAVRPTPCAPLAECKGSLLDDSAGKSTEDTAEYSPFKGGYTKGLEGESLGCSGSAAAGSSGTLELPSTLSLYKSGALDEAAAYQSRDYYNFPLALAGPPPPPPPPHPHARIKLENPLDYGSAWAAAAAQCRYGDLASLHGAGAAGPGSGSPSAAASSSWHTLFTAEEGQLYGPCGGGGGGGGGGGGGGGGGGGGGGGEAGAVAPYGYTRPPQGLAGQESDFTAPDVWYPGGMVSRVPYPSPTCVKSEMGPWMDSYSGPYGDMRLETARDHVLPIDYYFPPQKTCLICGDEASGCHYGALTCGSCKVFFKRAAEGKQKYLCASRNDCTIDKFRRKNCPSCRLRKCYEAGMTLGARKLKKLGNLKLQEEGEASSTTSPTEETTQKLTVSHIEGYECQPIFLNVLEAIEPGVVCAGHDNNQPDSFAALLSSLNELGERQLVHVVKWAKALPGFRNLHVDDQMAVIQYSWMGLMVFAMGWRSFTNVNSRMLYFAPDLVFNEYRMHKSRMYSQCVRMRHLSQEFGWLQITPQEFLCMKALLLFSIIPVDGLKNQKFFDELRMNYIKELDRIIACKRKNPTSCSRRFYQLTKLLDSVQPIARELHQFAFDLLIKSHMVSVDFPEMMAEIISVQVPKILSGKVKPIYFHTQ
# Test: AR transcriptional activity, LNCaP-ARR2PB-eGFP reporter cells
# Type: cell-based
# Settings: read-out: IC50 AR transcriptional activities
# Source text: Detection principles: We conducted a stable transfection of promoter ARR2PB known for its strong AR responsiveness, into the androgen-dependent PCa cells (LNCaP). The expression of enhanced green fluorescent protein (eGFP) is depending on the degree of activation of AR. Therefore, LNCaP-ARR2PB-eGFP cell line could quantitatively determine the AR antagonistic activities of the compounds by evaluating the expression of eGFP.
row,SMILES,IC50 [nM]
1,"CC(=O)Cc1nsc(NC(=O)c2cc(-c3cccc([N+](=O)[O-])c3)oc2C)n1 [Compound A-2, 2-Methyl-5-(3-nitrophenyl)-N-(3-(2-oxopropyl)-1,2,4-thiadiazol-5-yl)furan-3-carboxamide]",40
2,"CC(=O)Cc1nsc(NC(=O)c2cc(-c3ccccc3)oc2C)n1 [Compound A-5, 2-Methyl-N-(3-(2-oxopropyl)-1,2,4-thiadiazol-5-yl)-5-phenylfuran-3-carboxamide]",950
3,"CCOc1cccc(-c2cc(C(=O)Nc3nc(CC(C)=O)ns3)c(C)o2)c1 [Compound A-6, 5-(3-Ethoxyphenyl)-2-methyl-N-(3-(2-oxopropyl)-1,2,4-thiadiazol-5-yl)furan-3-carboxamide]",130
4,"CC(=O)Cc1nsc(NC(=O)c2cc(-c3ccc(Cl)c(Cl)c3)oc2C)n1 [Compound A-10, 5-(3,4-Dichlorophenyl)-2-methyl-N-(3-(2-oxopropyl)-1,2,4-thiadiazol-5-yl)furan-3-carboxamide]",1240
5,"CC(=O)Cc1nsc(NC(=O)c2cc(-c3cccc4ccccc34)oc2C)n1 [Compound A-11, 2-Methyl-5-(naphthalen-1-yl)-N-(3-(2-oxopropyl)-1,2,4-thiadiazol-5-yl)furan-3-carboxamide]",4240
6,"CC(=O)Cc1nsc(NC(=O)c2cc(-c3ccc4ccccc4c3)oc2C)n1 [Compound A-12, 2-Methyl-5-(naphthalen-2-yl)-N-(3-(2-oxopropyl)-1,2,4-thiadiazol-5-yl)furan-3-carboxamide]",3170
7,"CC(=O)Cc1nsc(NC(=O)c2cc(-c3cccc(OC(F)(F)F)c3)oc2C)n1 [Compound A-13, 2-Methyl-N-(3-(2-oxopropyl)-1,2,4-thiadiazol-5-yl)-5-(3-(trifluoromethoxy)phenyl)furan-3-carboxamide]",480
8,"CC(=O)Cc1nsc(NC(=O)c2cc(-c3cccc(OC(F)F)c3)oc2C)n1 [Compound A-14, 5-(3-(Difluoromethoxy)phenyl)-2-methyl-N-(3-(2-oxopropyl)-1,2,4-thiadiazol-5-yl)furan-3-carboxamide]",50
9,"CC(=O)Cc1nsc(NC(=O)c2cc(-c3cccc(NC(C)=O)c3)oc2C)n1 [Compound A-25, 5-(3-Acetamidophenyl)-2-methyl-N-(3-(2-oxopropyl)-1,2,4-thiadiazol-5-yl)furan-3-carboxamide]",13600
10,"CC(=O)Cc1nsc(NC(=O)c2cc(-c3cccc(OC(C)=O)c3)oc2C)n1 [Compound A-27, 3-(5-Methyl-4-((3-(2-oxopropyl)-1,2,4-thiadiazol-5-yl)carbamoyl)furan-2-yl)phenyl acetate]",5500
11,"COC(=O)c1cccc(-c2cc(C(=O)Nc3nc(CC(C)=O)ns3)c(C)o2)c1 [Compound A-30, Methyl 3-(5-methyl-4-((3-(2-oxopropyl)-1,2,4-thiadiazol-5-yl)carbamoyl)furan-2-yl)benzoate]",5190
12,"CC(=O)Cc1nsc(NC(=O)c2cc(-c3cccnc3)oc2C)n1 [Compound A-31, 2-Methyl-N-(3-(2-oxopropyl)-1,2,4-thiadiazol-5-yl)-5-(pyridin-3-yl)furan-3-carboxamide]",6330
13,"[2H]c1c(-c2cccc(C(F)(F)F)c2)oc(C)c1C(=O)Nc1nc(CC(C)=O)ns1 [Compound A-34, 2-Methyl-N-(3-(2-oxopropyl)-1,2,4-thiadiazol-5-yl)-5-(3-(trifluoromethyl)phenyl)furan-4-d-3-carboxamide]",40
14,"[2H]c1c(-c2cccc(C#N)c2)oc(C)c1C(=O)Nc1nc(CC(C)=O)ns1 [Compound A-35, 5-(3-Cyanophenyl)-2-methyl-N-(3-(2-oxopropyl)-1,2,4-thiadiazol-5-yl)furan-4-d-3-carboxamide]",720
15,"[2H]c1c(-c2cccc(OC(F)(F)F)c2)oc(C)c1C(=O)Nc1nc(CC(C)=O)ns1 [Compound A-36, 2-Methyl-N-(3-(2-oxopropyl)-1,2,4-thiadiazol-5-yl)-5-(3-(trifluoromethoxy)phenyl)furan-4-d-3-carboxamide]",70
16,"[2H]c1c(-c2cccc(OC(F)F)c2)oc(C)c1C(=O)Nc1nc(CC(C)=O)ns1 [Compound A-37, 5-(3-(Difluoromethoxy)phenyl)-2-methyl-N-(3-(2-oxopropyl)-1,2,4-thiadiazol-5-yl)furan-4-d-3-carboxamide]",30
17,"Cc1oc(-c2cccc(C(F)(F)F)c2)cc1C(=O)Nc1nc(CC(C)N(C)C)ns1 (stereo not shown) [Compound A-38, N-(3-(2-(dimethylamino)propyl)-1,2,4-thiadiazol-5-yl)-2-methyl-5-(3-(trifluoromethyl)phenyl)furan-3-carboxamide]",90
18,"CCN(CC)C(C)Cc1nsc(NC(=O)c2cc(-c3cccc(C(F)(F)F)c3)oc2C)n1 (stereo not shown) [Compound A-39, N-(3-(2-(diethylamino)propyl)-1,2,4-thiadiazol-5-yl)-2-methyl-5-(3-(trifluoromethyl)phenyl)furan-3-carboxamide]",120
19,"Cc1oc(-c2cccc(C(F)(F)F)c2)cc1C(=O)Nc1nc(CC(C)N2CCCC2)ns1 (stereo not shown) [Compound A-40, 2-Methyl-N-(3-(2-(pyrrolidin-1-yl)propyl)-1,2,4-thiadiazol-5-yl)-5-(3-(trifluoromethyl)phenyl)furan-3-carboxamide]",230

# Further lines, results first:
row,IC50 [nM],SMILES
1,320,"CC(=O)Cc1nsc(NC(=O)c2cc(-c3cccc(C#N)c3)oc2C)n1 [Compound A-3, 5-(3-Cyanophenyl)-2-methyl-N-(3-(2-oxopropyl)-1,2,4-thiadiazol-5-yl)furan-3-carboxamide]"
2,350,"COc1cccc(-c2cc(C(=O)Nc3nc(CC(C)=O)ns3)c(C)o2)c1 [Compound A-4, 5-(3-Methoxyphenyl)-2-methyl-N-(3-(2-oxopropyl)-1,2,4-thiadiazol-5-yl)furan-3-carboxamide]"
3,1160,"CC(=O)Cc1nsc(NC(=O)c2cc(-c3cccc(F)c3)oc2C)n1 [Compound A-7, 5-(3-Fluorophenyl)-2-methyl-N-(3-(2-oxopropyl)-1,2,4-thiadiazol-5-yl)furan-3-carboxamide]"
4,1710,"CC(=O)Cc1nsc(NC(=O)c2cc(-c3cccc(Cl)c3)oc2C)n1 [Compound A-8, 5-(3-Chlorophenyl)-2-methyl-N-(3-(2-oxopropyl)-1,2,4-thiadiazol-5-yl)furan-3-carboxamide]"
5,2360,"CC(=O)Cc1nsc(NC(=O)c2cc(-c3cccc(Br)c3)oc2C)n1 [Compound A-9, 5-(3-Bromophenyl)-2-methyl-N-(3-(2-oxopropyl)-1,2,4-thiadiazol-5-yl)furan-3-carboxamide]"
6,1620,"CC(=O)Cc1nsc(NC(=O)c2cc(-c3cccc(N)c3)oc2C)n1 [Compound A-24, 5-(3-Aminophenyl)-2-methyl-N-(3-(2-oxopropyl)-1,2,4-thiadiazol-5-yl)furan-3-carboxamide]"
7,3210,"CC(=O)Cc1nsc(NC(=O)c2cc(-c3cccc(O)c3)oc2C)n1 [Compound A-26, 5-(3-Hydroxyphenyl)-2-methyl-N-(3-(2-oxopropyl)-1,2,4-thiadiazol-5-yl)furan-3-carboxamide]"
8,1030,"CC(=O)Cc1nsc(NC(=O)c2cc(-c3cccc(C(N)=O)c3)oc2C)n1 [Compound A-28, 5-(3-Carbamoylphenyl)-2-methyl-N-(3-(2-oxopropyl)-1,2,4-thiadiazol-5-yl)furan-3-carboxamide]"
9,940,"CC(=O)Cc1nsc(NC(=O)c2cc(-c3cccc(C(=O)O)c3)oc2C)n1 [Compound A-29, 3-(5-Methyl-4-((3-(2-oxopropyl)-1,2,4-thiadiazol-5-yl)carbamoyl)furan-2-yl)benzoic acid]"

# — US20240376091A1, “THIADIAZOLEAMIDE DERIVATIVES AND THEIR APPLICATIONS” (ZHEJIANG UNIVERSITY, priority 2021, published 2024)
